Results reported in patent US9845340B2, “Peptides that specifically bind HGF receptor (cMet) and uses thereof” (Dyax Corp., priority 2003, dated 2017).

How the values were obtained:
cMet-Fc fusion protein = cMet-Fc fusion protein (Homo sapiens, UniProt P08581); test: Protein phage ELISA: peptide-displaying phage binding to soluble cMet-Fc versus TRAIL-Fc; settings: phage isolate; cMet-Fc vs. TRAIL-Fc
How it was run: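 Phage displaying selected peptides were incubated 2 h at room temperature on wells coated with 0.5 μg/mL cMet-Fc, with TRAIL-Fc coating as the unrelated-Fc specificity control.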

[1] = target: T1, cMet-Fc fusion protein (or similar target) (Mus musculus, UniProt P16056); test: Fluorescence anisotropy / polarization direct binding, mouse cMet; set-up: key: NB = no binding; settings: fluorescein-labeled peptide
T1 construct: Fc
Procedure: Fluorescence anisotropy measurements were performed in 384-well microplates in a volume of 10 μL in binding buffer (PBS, 0.01% Tween-20, pH 7.5) using a Tecan Polarion fluorescence polarization plate reader ([…]). The concentration of fluorescein-labeled peptide was held constant (20 nM) and the concentration of cMet-Fc fusion protein (or similar target) was varied. Binding mixtures were equilibrated for 10 minutes in the microplate at 30 C before measurement. The observed change in anisotropy was fit to the equation below via nonlinear regression to obtain the apparent KD. This equation (1) assumes that the synthetic peptide and cMet form a reversible complex in solution with 1:1 stoichiometry.
[formula] where robs is the observed anisotropy, rfree is the anisotropy of the free peptide, rbound is the anisotropy of the bound peptide, KD is the apparent dissociation constant, cMet is the total cMet concentration, and P is the total fluorescein-labeled peptide concentration. KD was calculated in a direct binding assay (KD,B) and therefore these values represent cMet binding to the fluorescein labeled peptide.

[2] = target: T2, 3T3 cells that over-express human cMet (Homo sapiens, UniProt P08581); test: Whole cell ELISA of peptide-displaying phage; format: cell-based; settings: phage isolate; 3T3 cells expressing human cMet vs. non-expressing 3T3 cells
T2 construct: expressed in transfected cells; host or cells: 3T3 cells
How it was run: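 Phage displaying peptides, pre-blocked 1 h at 37 °C, incubated 1 h at RT on glutaraldehyde-fixed (0.1%, 12 min, 37 °C) cMet-overexpressing 3T3 cells (10^5 per well). Binding read out by HRP anti-M13 antibody after PBST washing.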

SK-LMS-1 cells = test: Cellular proliferation assay (HGF-stimulated, BrdU incorporation); format: cell-based; settings: peptide 10 μM, HGF 50 ng/mL or 100 ng/mL, FIG. 10
Procedure: Cellular proliferation assays were performed to identify cMet-binding peptides that antagonize HGF-stimulated proliferation. These in vitro studies utilized a leomyosarcoma cell line, SK-LMS-1, in which cells proliferate in response to HGF. SK-LMS-1 cells were seeded on 96-well plates at a density of 2000 cells/well. After a 24 hour incubation at 37 C, the cells were starved in culture media containing 0.1% BSA instead of 10% fetal bovine serum for 36 hours at 37 C. Fresh starvation media with or without a cMet-binding peptide (10 μM) was added to the respective wells and the cells were incubated for 2 hours at 37 C. […] HGF was then added at a concentration of either 50 ng/mL or 100 ng/mL and the cells were incubated for an additional 12 hours at 37 C. Proliferation was assessed by measuring the incorporation of BrdU (Calbiochem, San Diego, Calif.) as described by the manufacturer. Results are shown for SEQ ID NO:365 (FIG. 10).

cMet-Fc fusion protein, sequence (P08581 25-307 limits assumed): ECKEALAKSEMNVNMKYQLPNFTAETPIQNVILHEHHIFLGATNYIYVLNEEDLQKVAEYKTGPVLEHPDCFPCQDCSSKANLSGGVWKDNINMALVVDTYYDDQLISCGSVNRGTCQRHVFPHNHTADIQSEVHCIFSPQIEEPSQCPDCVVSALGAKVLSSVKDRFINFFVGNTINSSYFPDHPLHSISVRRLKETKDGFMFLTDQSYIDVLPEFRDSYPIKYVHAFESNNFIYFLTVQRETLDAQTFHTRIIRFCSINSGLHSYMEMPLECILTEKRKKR
cMet-Fc fusion protein, sequence (P08581 with tags, fused parts or gaps limits assumed): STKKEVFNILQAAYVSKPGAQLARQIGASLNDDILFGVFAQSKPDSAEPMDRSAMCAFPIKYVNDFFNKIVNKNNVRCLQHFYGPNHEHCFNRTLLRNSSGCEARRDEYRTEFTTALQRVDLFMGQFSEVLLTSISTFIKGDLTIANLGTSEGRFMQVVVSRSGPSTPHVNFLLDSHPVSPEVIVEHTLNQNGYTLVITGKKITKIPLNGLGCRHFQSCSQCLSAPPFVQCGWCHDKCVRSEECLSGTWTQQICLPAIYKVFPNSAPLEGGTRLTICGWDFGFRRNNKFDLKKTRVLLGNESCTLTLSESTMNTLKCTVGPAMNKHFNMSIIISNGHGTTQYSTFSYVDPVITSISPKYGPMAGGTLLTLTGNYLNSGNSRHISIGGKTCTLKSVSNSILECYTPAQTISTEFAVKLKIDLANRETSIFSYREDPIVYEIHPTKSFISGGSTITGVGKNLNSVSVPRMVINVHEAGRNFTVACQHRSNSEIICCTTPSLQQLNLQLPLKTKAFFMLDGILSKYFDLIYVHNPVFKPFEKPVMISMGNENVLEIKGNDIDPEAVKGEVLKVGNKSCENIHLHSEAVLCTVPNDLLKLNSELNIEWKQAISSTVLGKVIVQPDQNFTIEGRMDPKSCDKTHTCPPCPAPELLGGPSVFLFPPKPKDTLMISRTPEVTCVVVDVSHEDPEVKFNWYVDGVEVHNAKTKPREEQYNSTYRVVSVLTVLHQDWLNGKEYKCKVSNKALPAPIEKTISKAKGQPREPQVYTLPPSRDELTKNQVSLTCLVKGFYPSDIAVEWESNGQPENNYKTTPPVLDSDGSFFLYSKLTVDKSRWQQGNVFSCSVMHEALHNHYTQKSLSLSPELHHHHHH
T2 sequence (P08581 25-1390): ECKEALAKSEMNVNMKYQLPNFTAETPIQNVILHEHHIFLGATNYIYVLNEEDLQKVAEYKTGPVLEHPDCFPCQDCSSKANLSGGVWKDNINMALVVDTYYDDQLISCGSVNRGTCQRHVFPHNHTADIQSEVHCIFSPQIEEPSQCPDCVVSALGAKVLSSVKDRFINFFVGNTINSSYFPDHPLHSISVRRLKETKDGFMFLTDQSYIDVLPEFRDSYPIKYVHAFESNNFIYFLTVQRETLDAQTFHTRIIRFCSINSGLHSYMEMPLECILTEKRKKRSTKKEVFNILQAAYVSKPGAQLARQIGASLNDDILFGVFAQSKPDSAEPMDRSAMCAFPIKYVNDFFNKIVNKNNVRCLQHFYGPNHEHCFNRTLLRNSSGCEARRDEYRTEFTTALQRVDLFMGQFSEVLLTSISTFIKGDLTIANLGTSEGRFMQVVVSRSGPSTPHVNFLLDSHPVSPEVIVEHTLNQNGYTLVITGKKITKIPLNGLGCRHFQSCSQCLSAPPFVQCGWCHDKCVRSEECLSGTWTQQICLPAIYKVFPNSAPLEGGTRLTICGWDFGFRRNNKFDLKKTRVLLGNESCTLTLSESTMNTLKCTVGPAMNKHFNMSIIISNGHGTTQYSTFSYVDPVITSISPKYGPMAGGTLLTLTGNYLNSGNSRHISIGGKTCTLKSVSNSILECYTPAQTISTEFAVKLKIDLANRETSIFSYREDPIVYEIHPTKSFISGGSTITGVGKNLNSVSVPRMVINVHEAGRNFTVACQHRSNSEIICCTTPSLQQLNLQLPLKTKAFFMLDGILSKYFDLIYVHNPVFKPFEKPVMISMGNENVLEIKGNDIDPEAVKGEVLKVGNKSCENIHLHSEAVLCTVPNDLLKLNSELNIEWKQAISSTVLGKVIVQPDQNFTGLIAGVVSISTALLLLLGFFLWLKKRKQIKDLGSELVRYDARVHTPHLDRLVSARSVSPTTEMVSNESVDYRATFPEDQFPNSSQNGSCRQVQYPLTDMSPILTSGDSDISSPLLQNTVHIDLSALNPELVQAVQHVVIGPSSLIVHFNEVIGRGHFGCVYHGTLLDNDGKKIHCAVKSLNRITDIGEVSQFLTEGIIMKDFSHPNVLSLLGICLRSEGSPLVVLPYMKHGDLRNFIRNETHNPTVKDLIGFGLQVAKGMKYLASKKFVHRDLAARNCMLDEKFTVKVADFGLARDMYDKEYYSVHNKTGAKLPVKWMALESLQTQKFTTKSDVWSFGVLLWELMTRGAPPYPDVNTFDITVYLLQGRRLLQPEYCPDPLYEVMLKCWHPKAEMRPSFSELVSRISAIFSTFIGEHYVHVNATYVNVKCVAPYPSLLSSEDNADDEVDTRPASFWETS
T1 sequence (P16056 25-306 limits assumed): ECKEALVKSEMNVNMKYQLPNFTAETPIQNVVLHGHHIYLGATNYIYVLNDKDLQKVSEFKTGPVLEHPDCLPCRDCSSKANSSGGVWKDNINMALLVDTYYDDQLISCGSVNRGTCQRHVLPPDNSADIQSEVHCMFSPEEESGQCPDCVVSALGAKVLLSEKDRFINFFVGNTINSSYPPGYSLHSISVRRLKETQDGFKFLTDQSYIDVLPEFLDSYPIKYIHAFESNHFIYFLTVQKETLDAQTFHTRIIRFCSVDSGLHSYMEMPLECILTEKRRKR
T1 sequence (P16056 307-929 limits assumed): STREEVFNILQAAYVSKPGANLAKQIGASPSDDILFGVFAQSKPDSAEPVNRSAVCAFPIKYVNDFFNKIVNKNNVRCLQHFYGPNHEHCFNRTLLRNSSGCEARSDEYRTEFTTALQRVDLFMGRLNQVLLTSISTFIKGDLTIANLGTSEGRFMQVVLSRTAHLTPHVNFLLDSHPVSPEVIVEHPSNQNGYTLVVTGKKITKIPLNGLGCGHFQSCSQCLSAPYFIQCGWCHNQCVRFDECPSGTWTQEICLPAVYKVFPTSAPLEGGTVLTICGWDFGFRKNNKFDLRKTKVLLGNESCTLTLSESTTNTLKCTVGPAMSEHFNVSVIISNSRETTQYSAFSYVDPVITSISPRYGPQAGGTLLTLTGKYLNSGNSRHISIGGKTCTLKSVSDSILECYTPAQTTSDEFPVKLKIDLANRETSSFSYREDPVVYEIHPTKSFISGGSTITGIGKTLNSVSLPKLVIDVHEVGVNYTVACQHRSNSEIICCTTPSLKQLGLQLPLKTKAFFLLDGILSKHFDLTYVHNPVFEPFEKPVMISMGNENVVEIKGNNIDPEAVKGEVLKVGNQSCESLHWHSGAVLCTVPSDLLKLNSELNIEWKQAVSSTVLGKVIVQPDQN

| Compound | Protein ELISA (cMet-Fc fusion protein) | Kd (mouse) [1] | WC ELISA [2] | growth inhibitory properties (HGF-stimulated proliferation) (SK-LMS-1 cells) |
| --- | --- | --- | --- | --- |
| CC(=O)NCC(=O)N[C@@H](CC(=O)O)C(=O)N[C@@H](Cc1ccc(O)cc1)C(=O)N[C@@H](CO)C(=O)N[C@@H](CCC(=O)O)C(=O)N[C@H]1CSSC[C@@H](C(=O)N[C@@H](Cc2ccc(O)cc2)C(=O)N[C@@H](CC(=O)O)C(=O)N[C@@H](CCCNC(=N)N)C(=O)N[C@@H](CC(=O)O)C(=O)N2CCC[C@H]2C(=O)NCC(=O)NCC(=O)NCC(=O)N[C@@H](CCCCNC(=O)c2ccc3c(c2)C(=O)OC32c3ccc(O)cc3Oc3cc(O)ccc32)C(N)=O)NC(=O)[C@H](CCCCN)NC(=O)[C@H](C(C)C)NC(=O)[C@H](CCC(=O)O)NC(=O)[C@H](Cc2ccccc2)NC(=O)[C@H](CO)NC(=O)[C@H](CC(=O)O)NC(=O)[C@@H]2CCCN2C(=O)[C@H](CCC(=O)O)NC(=O)[C@H](Cc2ccccc2)NC(=O)[C@H](Cc2ccccc2)NC1=O [SEQ ID NO: 399] | 11.3 fold over background | NB | 1.30 fold over background | – |
| CC[C@H](C)[C@@H]1NC(=O)[C@H](CCCNC(=N)N)NC(=O)[C@H](Cc2c[nH]c3ccccc23)NC(=O)[C@@H](NC(=O)[C@@H]2CCCN2C(=O)[C@H](Cc2ccccc2)NC(=O)[C@H](Cc2ccccc2)NC(=O)[C@H](CO)NC(=O)CNC(C)=O)CSSC[C@@H](C(=O)N[C@@H](Cc2c[nH]cn2)C(=O)N[C@@H](C)C(=O)N[C@@H](CC(N)=O)C(=O)N[C@@H](C)C(=O)N2CCC[C@H]2C(=O)NCC(=O)NCC(=O)NCC(=O)N[C@@H](CCCCNC(=O)c2ccc3c(c2)C(=O)OC32c3ccc(O)cc3Oc3cc(O)ccc32)C(N)=O)NC(=O)[C@H](Cc2ccc(O)cc2)NC(=O)CNC(=O)[C@H](Cc2ccccc2)NC(=O)[C@H](CCCNC(=N)N)NC(=O)[C@H](CC(=O)O)NC1=O [SEQ ID NO: 370] | 13.3 fold over background | NB | 1.87 fold over background | – |
| GSWRFCGGEYSFQVCQDVAP (Synthetically generated cMet-binding peptide sequence) [SEQ ID NO: 365] | 26.3 fold over background | – | 1.33 fold over background | growth inhibitory properties |
